# Data as given in patent US20240299416A1, “TREATMENT OF NF-kB-MEDIATED DISEASE” (ReveraGen BioPharma, Inc., priority 2021, published 2024).
# Where two headings read alike, the source gives them in different places.
# Tests used:
# Format in all cases: in vivo, human
# [1] = VBP15-004 height and BMI z-scores, 24 to 48 weeks; conditions: for change in height Z scores: baseline to Week 24
# Experimental: The second period of 24 weeks, where all participants receive vamorolone treatment on either of the two dose levels, will continue to capture additional longer-term safety and tolerability data.
# (§1) Subjects already on vamorolone continued on the allocated dose level. Efficacy at Week 48 was assessed by Time to Stand (TTSTAND) velocity, 6-Minute Walk Test (6MWT), Time to Run/Walk 10 meters (TTRW) velocity, and North Star Ambulatory Assessment (NSAA). […] In contrast, the persistence of effects with vamorolone 2 mg/kg/day was less pronounced for some parameters. The safety profile was consistent for subjects who continued on the same dose of vamorolone throughout the study, with no increase in frequency or severity of adverse events being observed over time. […] In addition, vamorolone treatment at both doses reversed the growth impairment seen during prednisone treatment and was associated with fewer adverse events, including those associated with corticosteroid use.
# [2] = tested on: boys with DMD; test: VBP15-004 efficacy at Week 48; conditions: for 6MWT, change from baseline / NSAA, change from baseline / TTRW velocity, change from baseline / TTSTAND velocity, change from baseline: 6 mg/kg/day
# Experimental: as §1, with “([…])” for “(TTSTAND)”
# [3] = tested on: boys with DMD; test: VBP15-LTE month 24 PODCI and wrist x-ray bone age
# From the text: In addition, 39/41 LTE participants had wrist x-ray at Month 24; the mean bone age to chronologic age difference was −1.1 (p<0.001, CI −1.5, −0.7), indicating possible skeletal maturation delay (Table 7).
# PODCI is the Pediatrics Outcomes Data Collection Instrument (musculoskeletal disorders). The PODCI is a disease-specific questionnaire developed by the American Academy of Orthopedic Surgeons to measure general health and problems related to bone and muscle conditions in children. A significant increase in mean PODCI upper extremity and physical function standardized score was observed from LTE baseline to Month 24 (7.95±12.54, CI 1.003, 14.897, p=0.0278, n=15) for the combined 2.0 and 6.0 mg/kg/day initial dose group. At the same time, a non-significant decrease in mean PODCI transfer and basic mobility standardized score was observed (−4.38±22.68, CI −16.471, 7.703, p=0.451, n=16) (Table 7).
# [4] = VBP15-003 24-week dose-finding extension, safety
# Experimental: Vamorolone clinical studies have been conducted in adult male volunteers and boys with DMD, a disorder in which skeletal muscle is in a chronic inflammatory state. Two consecutive open-label dose-ranging studies in 48 DMD patients aged 4 to <7 years (corticosteroid-naïve) were conducted (Phase IIa, VBP15-002; Phase IIa, VBP15-003). Doses were tested over a 24-fold dose range (0.25, 0.75, 2.0, and 6.0 mg/kg/day), with 12 participants per group. The first multiple ascending dose (MAD) cohort trial-tested pharmacokinetics (PK) and safety for 2 weeks of drug dosing followed by a 2-week washout (VBP15-002). […] All DMD participants completed the MAD study and then continued on the same dose for a 24-week dose-finding (efficacy and safety) extension study (VBP15-003).
# VBP15-002 (Phase IIa; two weeks on the drug, two weeks off drug) enrolled 48 corticosteroid-naïve participants with DMD, and all 48 participants completed the study and enrolled into VBP15-003 (Phase IIa extension; 24-week treatment). Forty-six of 48 participants completed the VBP15-003 study (2 participants withdrew from VBP15-003 for reasons unrelated to the study drug). In addition, all participants (46/46) opted to enroll in the 24-month long-term extension study, VBP15-LTE.
# Only participants completing VBP15-002 and VBP15-003 were eligible to enroll in VBP15-LTE. Participants received vamorolone at 1 of 4 dose levels (0.25, 0.75, 2.0, or 6.0 mg/kg/day) and at the same dose level in both the 4-week VBP15-002 trial and the 24-week VBP15-003 trial. If participants, their families, and their physicians wished to continue vamorolone treatment upon exiting the VBP15-003 trial, they were offered participation in the 24-month long-term extension (VBP15-LTE). The last visit of the VBP15-003 trial was commensurate with the first visit of the VBP15-LTE trial. In all studies, study medication was provided as 4% flavored liquid suspension and was dosed according to body weight and given once daily in the morning with food.
# Study visits took place quarterly, including assessment of clinical laboratory results, vital signs, and AEs. All AEs were coded using the Medical Dictionary for Regulatory Activities (MedDRA version 19.0) system for reporting (preferred term and system organ class). Clinical efficacy assessments were performed at baseline of the VBP15-002 study, at six months (end of VBP15-003 study), and the 12-month midpoint visit of the VBP15-LTE study.
# [5] = Treatment Period 2 after switch from prednisone to vamorolone 6 mg/kg/day
structure (smiles),measurement,setting,value
"C[C@@H]1C[C@H]2[C@@H]3CCC4=CC(=O)C=C[C@]4(C)C3=CC[C@]2(C)[C@@]1(O)C(=O)CO [Vamorolone, 17α,21-dihydroxy-16α-methylpregna-1,4,9(11)-triene-3,20-dione]","height (z-score), absolute value, Mean","[1]; PDN/VAM 6 mg, Week 48",−0.12
same,BMI mean z-score,[1]; [5],1.32
same,growth velocity,"[1]; both vamorolone doses, 48 weeks",preserved
same,BMI mean z-score,"[1]; continuing on 2 mg/kg/day, Week 24",1.10
same,BMI mean z-score,"[1]; continuing on 2 mg/kg/day, Week 48",0.91
same,BMI mean z-score,"[1]; continuing on 6 mg/kg/day, Week 24",1.40
same,BMI mean z-score,"[1]; continuing on 6 mg/kg/day, Week 48",1.32
same,change in height Z scores,[1]; vamorolone 2.0 mg/kg/day,overall stable height change Z scores
same,change in height Z scores,[1]; vamorolone 6.0 mg/kg/day,increased growth rate
same,"6MWT, change from baseline",[2]; Week 24,37 meters
same,"NSAA, change from baseline",[2]; Week 24,3.4 points
same,"TTRW velocity, change from baseline",[2]; Week 24,0.29 m/s
same,"TTSTAND velocity, change from baseline",[2]; Week 24,0.052 rises/s
same,"6MWT, change from baseline",[2]; Week 48,48 meters
same,"NSAA, change from baseline",[2]; Week 48,3.5 points
same,"TTRW velocity, change from baseline",[2]; Week 48,0.23 m/s
same,"TTSTAND velocity, change from baseline",[2]; Week 48,0.045 rises/s
same,6MWT distance,[2]; [5],408 meters
same,NSAA,[2]; [5],26.2 points
same,TTRW velocity,[2]; [5],2.20 m/s
same,TTSTAND velocity,[2]; [5],0.27 rises/s
same,"Bone Age by wrist x-ray, mean (SD)",[3],"6.8 (1.4), n = 39 yr"
same,"Bone Age difference to Chronologic Age, mean (SD)",[3],"−1.1 (1.2), yr"
same,"Bone Age difference to Chronologic Age, mean (SD)",[3]; listed as vamorolone,−1.1 yr
same,"TEAE abnormal behavior, participants",[4]; 2.0-mg/kg/day group,one participant
same,"TEAE Cushingoid habitus, participants",[4]; 6.0-mg/kg/day group,one participant each
same,"TEAE abnormal blood cortisol level, participants",[4]; 6.0-mg/kg/day group,one participant each
same,"TEAE anxiety, participants",[4]; 6.0-mg/kg/day group,one participant each
same,"TEAE hypertrichosis, participants",[4]; 6.0-mg/kg/day group,two participants
same,"TEAE personality change, participants",[4]; 6.0-mg/kg/day group,one participant each
same,safety and tolerability,"[4]; oral, all doses tested, 24 weeks",safe and well-tolerated
